Data published in US12064420B2, “Tie-2 activators targeting the Schlemm's canal” (EyePoint Pharmaceuticals, Inc., priority 2019, dated 2024).

Tested on: ocular normotensive human patients with diabetic eye disease
Assay: Phase 2 trial: IOP after subcutaneous Compound 1 alone or with intravitreal ranibizumab, diabetic macular edema
Format: in vivo
Method: IOP in patients were measured using a double-masked, parallel-group designed to assess the effects of subcutaneous (SC) Compound 1 (sodium salt) alone, or as an adjunct to intravitreal ranibizumab trial. 144 human subjects with diabetic retinopathy complicated by center-involved diabetic macular edema (DME) were randomized to 3 months of one of 3 treatments: 1) Compound 1 (15 mg) SC twice daily (BID) plus sham monthly intravitreal injection (IVT); 2) Compound 1 SC BID plus ranibizumab (0.3 mg) monthly IVT; and 3) Placebo SC BID+ranibizumab IVT. At baseline, mean age was 61.3±1.3 years; 59% of subjects were male; 82.6% had Type 2 diabetes; mean HBA1c was 7.5%±1.3%; mean best corrected visual acuity was 60.2 ETDRS letters (Snellen 20/63); and mean IOP was 15.7 mmHg±3.4. Ophthalmic safety assessments were performed at baseline and monthly during the 3-month treatment period including a single IOP measurement by applanation tonometry in both the study eye and the fellow eye at each time point. By protocol, all patients had baseline IOP<24 mmHg (ocular normotensive).
In the pre-specified safety analysis, change from baseline IOP was analyzed using a t-test (null hypothesis 0 change from baseline). The level of significance was set at 0.05. A post hoc analysis of the subject level IOP measure was the change from baseline in the average over both eyes within a subject for each timepoint. Statistical testing of each timepoint was completed using ANCOVA with baseline IOP (averaged over both eyes within a subject) as covariate. Additionally, statistical testing averaging across all timepoints was completed using a mixed-model repeated measures ANCOVA. The level of significance was set at 0.05.

[1] = average of study eye and fellow eye, week 4
[2] = average of study eye and fellow eye, week 8
[3] = average of study eye and fellow eye, week 12

ranibizumab [Placebo + ranibizumab, reference compound]
Week 4 subject-level IOP change from BL, mean (SD) [1]: −0.2 (2.61) mmHg | Week 4 subject-level IOP, mean (SD) [1]: 15.2 (3.50) mmHg | Week 8 subject-level IOP change from BL, mean (SD) [2]: 0.2 (2.86) mmHg | Week 8 subject-level IOP, mean (SD) [2]: 15.3 (3.31) mmHg | Week 12 subject-level IOP change from BL, mean (SD) [3]: 0.0 (3.32) mmHg | Week 12 subject-level IOP, mean (SD) [3]: 15.5 (3.85) mmHg | Week 4 IOP change from BL, mean (SD) (fellow eye (FE), week 4): −0.3 (3.49) mmHg | Week 4 IOP, mean (SD) (fellow eye (FE), week 4): 15.5 (4.85) mmHg | Week 8 IOP change from BL, mean (SD) (fellow eye (FE), week 8): −0.3 (3.44) mmHg | Week 8 IOP, mean (SD) (fellow eye (FE), week 8): 15.5 (4.52) mmHg | Week 12 IOP change from BL, mean (SD) (fellow eye (FE), week 12): −0.1 (3.62) mmHg | Week 12 IOP, mean (SD) (fellow eye (FE), week 12): 15.7 (5.19) mmHg | Week 4 IOP change from BL, mean (SD) (study eye (SE), week 4): −0.1 (2.74) mmHg | Week 4 IOP, mean (SD) (study eye (SE), week 4): 15.0 (3.50) mmHg | Week 8 IOP change from BL, mean (SD) (study eye (SE), week 8): 0.0 (3.25) mmHg | Week 8 IOP, mean (SD) (study eye (SE), week 8): 15.0 (3.61) mmHg | Week 12 IOP change from BL, mean (SD) (study eye (SE), week 12): 0.1 (3.83) mmHg | Week 12 IOP, mean (SD) (study eye (SE), week 12): 15.3 (4.09) mmHg | mean change in IOP from baseline (study or fellow eye, all time points): −0.3 to +0.1 mmHg
